Measured values: PubChem BioAssay (NCI)
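Growth conditions: 96-well plates. Treatment: test compound, 48 hours, 5 concentrations. Analysis: linear interpolation between bracketing concentrations; unreached endpoints set to highest concentration. TGI is the concentration that stops growth completely.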

Legend:
Experiment in all cases: NCI anticancer screen, dose series, 48 h
RXF 393 renal = system: RXF 393 renal
HCC-2998 colon = system: HCC-2998 colon
EKVX NSCLC = system: EKVX NSCLC
HL-60(TB) leukemia = system: HL-60(TB) leukemia
UACC-257 melanoma = system: UACC-257 melanoma
OVCAR-3 ovarian = system: OVCAR-3 ovarian
UO-31 renal = system: UO-31 renal
DU-145 prostate = system: DU-145 prostate
HCT-15 colon = system: HCT-15 colon
IGROV1 ovarian = system: IGROV1 ovarian
KM12 colon = system: KM12 colon
NCI-H522 lung = system: NCI-H522 lung
NCI-H23 lung = system: NCI-H23 lung
SK-MEL-2 melanoma = system: SK-MEL-2 melanoma
786-0 renal = system: 786-0 renal
OVCAR-8 ovarian = system: OVCAR-8 ovarian
HOP-92 NSCLC = system: HOP-92 NSCLC
MDA-MB-435 = system: MDA-MB-435
CCRF-CEM leukemia = system: CCRF-CEM leukemia
MDA-N = system: MDA-N
TK-10 renal = system: TK-10 renal
LOX IMVI melanoma = system: LOX IMVI melanoma
SF-268 CNS = system: SF-268 CNS
A498 renal = system: A498 renal
NCI-H226 lung = system: NCI-H226 lung
NCI-H460 lung = system: NCI-H460 lung
MDA-MB-231 breast = system: MDA-MB-231 breast
SR leukemia = system: SR leukemia
MOLT-4 leukemia = system: MOLT-4 leukemia
NCI/ADR-RES ovarian = system: NCI/ADR-RES ovarian
ACHN renal = system: ACHN renal
SW-620 colon = system: SW-620 colon
RPMI-8226 leukemia = system: RPMI-8226 leukemia
T-47D breast = system: T-47D breast
HT29 colon = system: HT29 colon
M14 melanoma = system: M14 melanoma
SK-MEL-28 melanoma = system: SK-MEL-28 melanoma
MCF7 breast = system: MCF7 breast
SK-MEL-5 melanoma = system: SK-MEL-5 melanoma
CAKI-1 renal = system: CAKI-1 renal
HS 578T breast = system: HS 578T breast
U251 CNS = system: U251 CNS
SK-OV-3 ovarian = system: SK-OV-3 ovarian
OVCAR-5 ovarian = system: OVCAR-5 ovarian
HCT-116 colon = system: HCT-116 colon
HOP-62 NSCLC = system: HOP-62 NSCLC
K-562 leukemia = system: K-562 leukemia
SF-539 CNS = system: SF-539 CNS
OVCAR-4 ovarian = system: OVCAR-4 ovarian
SF-295 CNS = system: SF-295 CNS
PC-3 prostate = system: PC-3 prostate
MALME-3M melanoma = system: MALME-3M melanoma
UACC-62 melanoma = system: UACC-62 melanoma
COLO 205 colon = system: COLO 205 colon
A549 NSCLC = system: A549 NSCLC
SNB-19 CNS = system: SNB-19 CNS
SN12C renal = system: SN12C renal
SNB-75 CNS = system: SNB-75 CNS

Measured: TGI

CCn1c2nc(=O)n(CCCCCCCCSC(c3ccccc3)(c3ccccc3)c3ccccc3)c(=O)c-2nc2ccccc21
6.51 µM: HL-60(TB) leukemia
24.6 µM: MOLT-4 leukemia
19.6 µM: HCC-2998 colon
60.8 µM: ACHN renal
18.1 µM: HT29 colon
31.6 µM: M14 melanoma
22.9 µM: SK-MEL-5 melanoma
53.1 µM: HOP-92 NSCLC
not listed: MALME-3M melanoma | UACC-62 melanoma | COLO 205 colon | A549 NSCLC | SNB-19 CNS | SN12C renal | SNB-75 CNS
> 100 µM: all other assays above

COc1ccc(-c2oc3ccccc3c(=O)c2O)cc1OC
47.4 µM: HOP-62 NSCLC
23.4 µM: U251 CNS
71.5 µM: A498 renal
76.8 µM: TK-10 renal
35.1 µM: SF-295 CNS
53 µM: SF-268 CNS
not listed: RXF 393 renal | HCC-2998 colon | HL-60(TB) leukemia | KM12 colon | NCI-H23 lung | SK-MEL-2 melanoma | 786-0 renal | OVCAR-8 ovarian | HOP-92 NSCLC | NCI-H226 lung | SR leukemia | MOLT-4 leukemia | RPMI-8226 leukemia | HS 578T breast | SF-539 CNS | OVCAR-4 ovarian | SN12C renal | SNB-75 CNS
> 100 µM: all other assays above

N#Cc1c(N)oc(-c2ccc([N+](=O)[O-])cc2)c1C#N
95.9 µM: MALME-3M melanoma
72.4 µM: ACHN renal
91.6 µM: SNB-19 CNS
56.9 µM: PC-3 prostate
73.5 µM: HOP-62 NSCLC
59.6 µM: EKVX NSCLC
53.1 µM: HCT-15 colon
54.7 µM: CAKI-1 renal
46.5 µM: NCI-H226 lung
58.9 µM: SF-268 CNS
47.1 µM: SNB-75 CNS
64.2 µM: SK-MEL-2 melanoma
52.1 µM: SN12C renal
59.3 µM: DU-145 prostate
57.2 µM: NCI-H23 lung
64.3 µM: MDA-MB-231 breast
62 µM: UACC-257 melanoma
76.8 µM: TK-10 renal
62.9 µM: HOP-92 NSCLC
42.4 µM: UO-31 renal | IGROV1 ovarian
82.8 µM: HS 578T breast
36.4 µM: SK-MEL-5 melanoma
53.5 µM: A498 renal
55.3 µM: SF-295 CNS
52.2 µM: OVCAR-8 ovarian
48.3 µM: SF-539 CNS
44 µM: NCI/ADR-RES ovarian
76.2 µM: T-47D breast
60.3 µM: NCI-H522 lung
not listed: OVCAR-3 ovarian | NCI-H460 lung | MOLT-4 leukemia | K-562 leukemia | OVCAR-4 ovarian
> 100 µM: all other assays above

CC(C)(C)COC(=O)C(C)(C)NC(=O)C(CC(=O)OCc1ccccc1)NC(=O)OCc1ccccc1 (configuration not stated)
89.9 µM: MDA-MB-435
93.5 µM: OVCAR-5 ovarian
29.1 µM: SK-MEL-5 melanoma
69.1 µM: HCT-15 colon
80 µM: UACC-62 melanoma
85.2 µM: NCI-H226 lung
79.5 µM: A498 renal
87.9 µM: HT29 colon
75.7 µM: SN12C renal | SNB-19 CNS
78.7 µM: TK-10 renal
44 µM: COLO 205 colon
81.3 µM: MALME-3M melanoma
60.2 µM: T-47D breast
82.1 µM: UACC-257 melanoma
70.7 µM: UO-31 renal
> 100 µM: all other assays above
